Measurements reported in ChEMBL document CHEMBL3885861, “Open TG-GATES”.

Organism: Rattus norvegicus
Assay: Open TG-GATES - Regimen: Daily Repeat
Format: toxicity, organism-based, Sprague-Dawley
Parameters: regimen Daily Repeat, gender Male, age 6 weeks
Conditions: in vivo, po, 150 mg/kg, […], route gavage, dose level High; for KIDNEY_L / KIDNEY_R / KIDNEY_TOTAL: tissue Kidney; for LIVER: tissue Liver; for A/G / ALP / ALT / AST / BUN / CRE / Ca / Cl / DBIL / GLC / IP / K / LDH / Na / PL / RALB / TBIL / TC / TG / TP / gamma-GTP: tissue Plasma

CC(C)C(=O)Nc1ccc([N+](=O)[O-])c(C(F)(F)F)c1 [FLUTAMIDE] was tested. Which Lym (tissue Blood, time 28 day) did it give?
The Lym was 81.6%.

And the MCH (tissue Blood, time 28 day)?
Its MCH is 19.5 pg.

And the MCHC (tissue Blood, time 28 day)?
The MCHC was 34.3%.

What about the MCV (tissue Blood, time 28 day) of the same compound?
The MCV was 56.9 fL.

And the Mono (tissue Blood, time 28 day)?
Its Mono is 2.6%.

What about the Neu (tissue Blood, time 28 day) of the same compound?
Its Neu is 13.6%.

And the PT (tissue Blood, time 28 day)?
Its PT is 12.8 s.

What about the Plat (tissue Blood, time 28 day) of the same compound?
The Plat was 98 x10_4/uL.

And the RBC (tissue Blood, time 28 day)?
The RBC was 700.6 x10_4/ul.

What about the Ret (tissue Blood, time 28 day) of the same compound?
The Ret was 3.7%.

And the WBC (tissue Blood, time 28 day)?
Its WBC is 112 x10_2/uL.

What about the KIDNEY_L (time 7 day) of the same compound?
The KIDNEY_L was 1 g.

And the KIDNEY_R (time 7 day)?
Its KIDNEY_R is 1 g.

What about the KIDNEY_TOTAL (time 7 day) of the same compound?
Its KIDNEY_TOTAL is 2 g.

What about the KIDNEY_L (time 14 day) of the same compound?
The KIDNEY_L was 1.1 g.

What about the KIDNEY_R (time 14 day) of the same compound?
The KIDNEY_R was 1.2 g.

And the KIDNEY_TOTAL (time 14 day)?
Its KIDNEY_TOTAL is 2.2 g.

And the KIDNEY_L (time 28 day)?
Its KIDNEY_L is 1.1 g.

And the KIDNEY_R (time 28 day)?
The KIDNEY_R was 1.2 g.

What about the KIDNEY_TOTAL (time 28 day) of the same compound?
Its KIDNEY_TOTAL is 2.3 g.

And the LIVER (time 7 day)?
Its LIVER is 15.7 g.

What about the LIVER (time 14 day) of the same compound?
Its LIVER is 16.8 g.

And the LIVER (time 28 day)?
Its LIVER is 20 g.

What about the A/G (time 7 day) of the same compound?
Its A/G is 1.5.

What about the ALP (time 7 day) of the same compound?
Its ALP is 797.6 IU/L.

What about the ALT (time 7 day) of the same compound?
The ALT was 32.8 IU/L.

And the AST (time 7 day)?
The AST was 46 IU/L.

What about the BUN (time 7 day) of the same compound?
Its BUN is 16 mg/dL.

What about the CRE (time 7 day) of the same compound?
The CRE was 0.4 mg/dL.

And the Ca (time 7 day)?
The Ca was 10.7 mg/dL.

What about the Cl (time 7 day) of the same compound?
Its Cl is 102.8 meq/L.

What about the DBIL (time 7 day) of the same compound?
The DBIL was 0.086 mg/dL.

And the GLC (time 7 day)?
The GLC was 199.8 mg/dL.

What about the IP (time 7 day) of the same compound?
Its IP is 7.1 mg/dL.

What about the K (time 7 day) of the same compound?
The K was 3.5 meq/L.

And the LDH (time 7 day)?
The LDH was 177.8 IU/L.

What about the Na (time 7 day) of the same compound?
Its Na is 140.6 meq/L.

And the PL (time 7 day)?
The PL was 186.8 mg/dL.

And the RALB (time 7 day)?
The RALB was 3.7 g/dL.

What about the TBIL (time 7 day) of the same compound?
Its TBIL is 0.2 mg/dL.

What about the TC (time 7 day) of the same compound?
Its TC is 110.6 mg/dL.

And the TG (time 7 day)?
Its TG is 42.6 mg/dL.

What about the TP (time 7 day) of the same compound?
Its TP is 6.2 g/dL.

What about the gamma-GTP (time 7 day) of the same compound?
Its gamma-GTP is 2 IU/L.

And the A/G (time 14 day)?
The A/G was 1.7.

And the ALP (time 14 day)?
The ALP was 726.8 IU/L.

What about the ALT (time 14 day) of the same compound?
The ALT was 31 IU/L.

What about the AST (time 14 day) of the same compound?
Its AST is 47.4 IU/L.

And the BUN (time 14 day)?
The BUN was 15 mg/dL.

What about the CRE (time 14 day) of the same compound?
The CRE was 0.5 mg/dL.

And the Ca (time 14 day)?
Its Ca is 10.5 mg/dL.

And the Cl (time 14 day)?
The Cl was 103.4 meq/L.

What about the DBIL (time 14 day) of the same compound?
The DBIL was 0.096 mg/dL.

What about the GLC (time 14 day) of the same compound?
Its GLC is 181.2 mg/dL.

And the IP (time 14 day)?
The IP was 6.3 mg/dL.

What about the K (time 14 day) of the same compound?
Its K is 3.8 meq/L.

And the LDH (time 14 day)?
The LDH was 173.8 IU/L.

What about the Na (time 14 day) of the same compound?
The Na was 140.4 meq/L.

And the PL (time 14 day)?
Its PL is 168.8 mg/dL.

What about the RALB (time 14 day) of the same compound?
The RALB was 3.8 g/dL.

What about the TBIL (time 14 day) of the same compound?
The TBIL was 0.2 mg/dL.

What about the TC (time 14 day) of the same compound?
The TC was 104.4 mg/dL.

What about the TG (time 14 day) of the same compound?
The TG was 32.2 mg/dL.

And the TP (time 14 day)?
The TP was 6 g/dL.

What about the gamma-GTP (time 14 day) of the same compound?
The gamma-GTP was 2.8 IU/L.

And the A/G (time 28 day)?
Its A/G is 1.8.

And the ALP (time 28 day)?
Its ALP is 642.2 IU/L.

What about the ALT (time 28 day) of the same compound?
Its ALT is 29.2 IU/L.

What about the AST (time 28 day) of the same compound?
The AST was 45.2 IU/L.

And the BUN (time 28 day)?
Its BUN is 16.4 mg/dL.

What about the CRE (time 28 day) of the same compound?
The CRE was 0.5 mg/dL.

What about the Ca (time 28 day) of the same compound?
The Ca was 10.7 mg/dL.

What about the Cl (time 28 day) of the same compound?
Its Cl is 104 meq/L.

What about the DBIL (time 28 day) of the same compound?
Its DBIL is 0.1 mg/dL.

What about the GLC (time 28 day) of the same compound?
Its GLC is 204.4 mg/dL.

And the IP (time 28 day)?
The IP was 7.6 mg/dL.

What about the K (time 28 day) of the same compound?
The K was 3.7 meq/L.

What about the LDH (time 28 day) of the same compound?
The LDH was 110.8 IU/L.

And the Na (time 28 day)?
The Na was 141.8 meq/L.

What about the PL (time 28 day) of the same compound?
Its PL is 167.4 mg/dL.

What about the RALB (time 28 day) of the same compound?
The RALB was 4.3 g/dL.

And the TBIL (time 28 day)?
The TBIL was 0.2 mg/dL.

What about the TC (time 28 day) of the same compound?
Its TC is 97.4 mg/dL.

And the TG (time 28 day)?
The TG was 26.6 mg/dL.

And the TP (time 28 day)?
Its TP is 6.8 g/dL.

What about the gamma-GTP (time 28 day) of the same compound?
Its gamma-GTP is 1.8 IU/L.
